In article PMC4183650 (Journal of the American Chemical Society, 2014):

What was measured:
VanA VRE = details: clinically resistant phenotypes (VanA and VanB); cited from earlier work
[1] = system: panel of Gram-positive bacteria (VSSA, MRSA, VanA and VanB VRE); experiment: In vitro antimicrobial assay, panel summary in text; type: cell-based, S. aureus, E. faecalis, E. faecium
[2] = both D-Ala-D-Ala and D-Ala-D-Lac ligands; cited from earlier work

Substance: Vancomycin [compound 1]
- loss in antimicrobial activity in resistant phenotypes (VanA VRE): 1000 fold

Substance: [Ψ[C(=S)NH]Tpg^4]vancomycin [compound 2]
- MIC against all vancomycin sensitive and resistant strains ([1]; whole panel: VSSA, MRSA, VanA and VanB VRE): > 32 µg/mL

Substance: [Ψ[C(=NH)NH]Tpg^4]vancomycin [compound 3]
- MIC against VanA resistant bacteria ([1]; VanA resistant bacteria): 0.5 µg/mL

Substance: [Ψ[C(=NH)NH]Tpg^4]vancomycin aglycon [compound 9]
- binding affinity for both target ligands relative to vancomycin aglycon for D-Ala-D-Ala [2]: ≤ 2 fold
